Laboratory results: patent publication US20160128336A1, “MICROBIAL AGRICULTURE” (DSM IP ASSETS B.V., priority 2013, published 2016)

System: Colletotrichum gloeosporioides (CBS272.51)
Assay: Agar plug bio-assay on YME agar, fungal colony radius towards Streptomyces or natamycin plug
Type: cell-based
Settings: Table 7; 10 ppm natamycin in agar plug (5% w/w methanol), 7 days at 28° C.
Procedure: Three fungal plant pathogens were tested against the selected S. natalensis strains: Fusarium oxysporum f.sp. lycopersici (CBS414.90), Colletotrichum gloeosporioides (CBS272.51) and Alternaria alternata (CBS103.33). Fusarium oxysporum f.sp. lycopersici is a soil borne fungus causing yield loss in e.g. tomato crops (Fusarium Wilt). Colletotrichum gloeosporioides causes e.g. anthracnose, a plant disease recognizable by dark brown lesions on leaves and fruits. Alternaria alternata is a worldwide occurring saprophyte that can cause phytopathogenic reactions in economically important host plants. The selected S. natalensis strains were tested against these fungal plant pathogens as described below.
Frozen vials (glycerol stocks) or freeze dried tubes from the selected S. natalensis strains were transferred to 100 ml baffled Erlenmeyer flasks containing 20 ml of Yeast Malt Extract broth (YME). […]
The bio-assay was done as follows. […] After 7 days the radius of the fungal colony was measured in the direction of the opposite agar plug (Streptomyces sample). […] The inhibition zone (in percentage) was calculated by using the following formula: 100% * (r0-r1)/r0, wherein r0is the radius (in mm, corrected for the plug radius) of the fungal colony from the control sample and wherein r1 is the radius (in mm, corrected for the plug radius) of the fungal colony from the Streptomyces inhibited sample. […]

C[C@@H]1C/C=C/C=C/C=C/C=C/[C@H](O[C@@H]2O[C@H](C)[C@@H](O)[C@H](N)[C@@H]2O)C[C@@H]2O[C@](O)(C[C@@H](O)C[C@H]3O[C@@H]3/C=C/C(=O)O1)C[C@H](O)[C@H]2C(=O)O [Natamycin, natamycin]
Average inhibition zone (in %): not as high
